According to patent US10894777B2, “TG2 inhibitor piperazine compounds and uses thereof” (UNIVERSITY OF OTTAWA, priority 2016, dated 2021):

Columns and labels:
TG2 [1] = target: T1, TG2 (Homo sapiens, UniProt P21980); experiment: Kinetic inactivation of purified recombinant human TG2, continuous spectrophotometric activity assay (Examples 3, 10); type: biochemical; set-up: made in house; conditions: Table 4; for kinact/KI: read-out: kinact/Ki (μM^−1 min^−1), for ^a no saturation observed, efficiency obtained from initial slope
T1 sequence (P21980 1-687): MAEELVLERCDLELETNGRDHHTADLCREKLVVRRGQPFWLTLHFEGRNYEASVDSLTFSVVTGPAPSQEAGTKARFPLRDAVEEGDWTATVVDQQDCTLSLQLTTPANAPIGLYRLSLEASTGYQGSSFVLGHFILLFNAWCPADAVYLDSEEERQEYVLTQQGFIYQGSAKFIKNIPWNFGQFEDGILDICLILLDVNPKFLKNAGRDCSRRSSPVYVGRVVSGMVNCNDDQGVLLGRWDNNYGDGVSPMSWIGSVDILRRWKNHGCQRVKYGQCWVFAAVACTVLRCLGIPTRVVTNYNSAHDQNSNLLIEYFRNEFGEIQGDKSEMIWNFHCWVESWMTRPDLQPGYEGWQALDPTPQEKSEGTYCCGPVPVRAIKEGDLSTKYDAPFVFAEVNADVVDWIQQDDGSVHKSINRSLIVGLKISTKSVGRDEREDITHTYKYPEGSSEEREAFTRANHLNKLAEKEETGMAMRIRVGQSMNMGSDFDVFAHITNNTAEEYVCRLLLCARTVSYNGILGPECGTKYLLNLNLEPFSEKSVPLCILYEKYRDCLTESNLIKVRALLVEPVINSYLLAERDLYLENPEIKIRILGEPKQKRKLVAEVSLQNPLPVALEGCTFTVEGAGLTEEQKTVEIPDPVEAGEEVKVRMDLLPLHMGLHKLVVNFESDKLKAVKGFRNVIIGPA
Experimental: Kinetic studies were carried out in vitro, using purified recombinant human TG2 (Roy, I. et al., Protein Expr. Purif. 87: 41-46, 2013) and a direct, continuous spectrophotometric activity assay (Leblanc, A. et al., Biochemistry 40: 8335-8342, 2001).
Kinetics. Kinetic runs were performed at 25° C. in 100 mM MOPS buffer (pH 7.0) containing 3 mM CaCl2 and 50 μM EDTA. […] Stock solutions of the substrate and inhibitors were prepared in DMF such that the final concentration of this co-solvent was constant at 10% v/v. Reactions were initiated with the addition of enzyme with an activity of approximately 0.05 U/mL. Kinetic evaluation was carried out by the method of Stone and Hofsteenge (Stone, S. R. and Hofsteenge, J., Biochem. J. 230: 497-502, 1985). […] Observed first-order rate constants of inactivation were determined from non-linear regression, to a mono-exponential model. These rate constants were in turn fit to equation 1 by non-linear regression, providing the kinetic parameters
Kinetic parameters were determined as described above.

TG2 [2] = target: T1, TG2; experiment: Colorimetric transamidase activity assay (AL5 substrate), hTG2; type: biochemical; conditions: for kinact/KI: read-out: kinact/KI (10^3M^−1 min^−1); for enzyme inactivation, relative observed rate constants (kobs): high concentration of inhibitor (18 μM, FIG. 43)
Experimental: In Vitro Assays. Colorimetric transamidase activity assay. The activities of hTG1, hTG2 and hTG6 were measured via a colorimetric assay using the chromogenic substrate Cbz-Glu(γ-p-nitrophenyl ester)Gly (AL5). The assay was conducted at 25° C. in 100 mM MOPS buffer (pH 6.5) containing 3.0 mM CaCl2 and 50 μM EDTA. […] A stock solution of AL5 was prepared in DMSO such that the final concentration of this co-solvent was constant at 2.5% v/v. Stock solutions of the inhibitors were made in the buffer system previously described. The reaction was initiated with the addition of 40-60 mU/mL of the respective enzyme (0.10 μM hTG1, 0.25 μM hTG2 or 0.32 μM hTG6). Product formation was monitored at 405 nm in a polystyrene 96-well microplate using a BioTek Synergy 4 plate reader. […] Observed first-order rate constants of inactivation (kobs) were determined from non-linear regression fit to a mono-exponential model (Equation 1) of the observed absorbance of the enzymatic hydrolysis product, p-nitrophenolate (pNP). […] Experiments were done in triplicate and variation between repeats was less than 30%.

[3] = Table 8, read-out: kinact (converted)
[4] = Table 5, read-out: kinact (converted)
[5] = Table 7, read-out: kinact (converted)

| kinact (TG2 [1]) [s⁻¹] | kinact/KI (TG2 [1]) [M⁻¹ s⁻¹] | melting point [°C] | kinact (TG2 [2]; [5]) [s⁻¹] | kinact/KI (TG2 [2]; Table 7) [M⁻¹ s⁻¹] | SMILES | further results |
| --- | --- | --- | --- | --- | --- | --- |
| 0.0202 | 4000 |  |  |  | C=CC(=O)NCCCC[C@H](NC(=O)OCc1ccccc1)C(=O)N1CCN(C(=O)c2ccc3ccccc3c2)CC1 [AA10, (S)-benzyl(1-(4-(2-naphthoyl)piperazin-1-yl)-6-acrylamido-1-oxohexan-2-yl)carbamate] | kinact (TG2 [2]; [3]): 0.0202 s⁻¹; kinact/KI (TG2 [2]; Table 8): 1500 M⁻¹ s⁻¹ |
|  | 883 | 54 to 56 |  |  | C=CC(=O)NCCCC[C@H](NC(=O)OCc1ccccc1)C(=O)NCCCCNS(=O)(=O)c1cccc2c(N(C)C)cccc12 [Compound 109, (S)-benzyl (6-acrylamido-1-((4-(5-(dimethylamino)naphthalene-1-sulfonamido)butyl)amino)-1-oxohexan-2-yl)carbamate] | kinact (TG2 [2]; [4]): 0.0365 s⁻¹; kinact/KI (TG2 [2]; Table 5): 1350 M⁻¹ s⁻¹ |
|  | 783 | 65 to 67 |  |  | C=CC(=O)NCCCC[C@H](NC(=O)OCc1ccccc1)C(=O)NCCCNS(=O)(=O)c1cccc2c(N(C)C)cccc12 [Compound 110, (S)-benzyl (6-acrylamido-1-((3-(5-(dimethylamino)naphthalene-1-sulfonamido)propyl)amino)-1-oxohexan-2-yl)carbamate] | kinact (TG2 [2]; [4]): 0.0142 s⁻¹; kinact/KI (TG2 [2]; Table 5): 460 M⁻¹ s⁻¹ |
| 0.0242 | 1030 |  |  |  | C=CC(=O)NCCCC[C@H](NC(=O)OCc1ccccc1)C(=O)NCCNS(=O)(=O)c1cccc2c(N(C)C)cccc12 [Compound 111, (S)-benzyl (6-acrylamido-1-((2-(5-(dimethylamino)naphthalene-1-sulfonamido)ethyl)amino)-1-oxohexan-2-yl)carbamate] | kinact (TG2 [2]; [4]): 0.0242 s⁻¹; kinact/KI (TG2 [2]; Table 5): 1020 M⁻¹ s⁻¹ |
|  |  |  |  |  | C=CC(=O)NC[C@H](NC(=O)OCc1ccccc1)C(=O)N1CCN(S(=O)(=O)c2cccc3c(N(C)C)cccc23)CC1 [Compound 115, (S)-benzyl (3-acrylamido-1-(4-((5-(dimethylamino)naphthalen-1-yl)sulfonyl)piperazin-1-yl)-1-oxopropan-2-yl)carbamate] | enzyme inactivation, relative observed rate constants (kobs) (TG2 [2]): no significant enzyme inactivation was observed |
|  |  |  |  |  | C=CC(=O)NCC[C@H](NC(=O)OCc1ccccc1)C(=O)N1CCN(S(=O)(=O)c2cccc3c(N(C)C)cccc23)CC1 [Compound 116, (S)-benzyl (4-acrylamido-1-(4-((5-(dimethylamino)naphthalen-1-yl)sulfonyl)piperazin-1-yl)-1-oxobutan-2-yl)carbamate] | enzyme inactivation, relative observed rate constants (kobs) (TG2 [2]): no significant enzyme inactivation was observed |
| 0.0134 | 1480 | 69 to 70 |  |  | C=CC(=O)NCCC[C@H](NC(=O)OCc1ccccc1)C(=O)N1CCN(S(=O)(=O)c2cccc3c(N(C)C)cccc23)CC1 [Compound 117, (S)-benzyl (5-acrylamido-1-(4-((5-(dimethylamino)naphthalen-1-yl)sulfonyl)piperazin-1-yl)-1-oxopentan-2-yl)carbamate] | kinact (TG2 [2]; Table 6, read-out: kinact (converted)): 0.0197 s⁻¹; enzyme inactivation, relative observed rate constants (kobs) (TG2 [2]): reappearance of enzyme inhibition albeit only modestly; kinact/KI (TG2 [2]; Table 6): 412 M⁻¹ s⁻¹ |
| 0.0082 | 2130 | 59 to 61 | 0.0065 | 620 | C=CC(=O)NCCCC[C@H](NC(=O)OCc1ccccc1)C(=O)N1CCN(S(=O)(=O)c2cccc3ccccc23)CC1 [Compound 128, (S)-benzyl 6-acrylamido-1-(4-(naphthalen-1-ylsulfonyl)piperazin-1-yl)-1-oxohexan-2-yl-carbamate] | rate constant of inactivation relative to VA4 (TG2 [2]): more than three-fold less |
| 0.00643 | 2500 | 65 to 66 | 0.00633 | 955 | C=CC(=O)NCCCC[C@H](NC(=O)OCc1ccccc1)C(=O)N1CCN(S(=O)(=O)c2ccc3ccccc3c2)CC1 [Compound 129, (S)-benzyl (6-acrylamido-1-(4-(naphthalen-2-ylsulfonyl)piperazin-1-yl)-1-oxohexan-2-yl)-carbamate] |  |
| 0.0102 | 2180 |  | 0.00783 | 888 | C=CC(=O)NCCCC[C@H](NC(=O)OCc1ccccc1)C(=O)N1CCN(S(=O)(=O)c2ccccc2)CC1 [Compound 130, (S)-benzyl (6-acrylamido-1-oxo-1-(4-(phenylsulfonyl)piperazin-1-yl)hexan-2-yl)carbamate] |  |
| 0.00907 | 1900 | 50 to 52 | 0.00783 | 582 | C=CC(=O)NCCCC[C@H](NC(=O)OCc1ccccc1)C(=O)N1CCN(S(=O)(=O)Cc2ccccc2)CC1 [Compound 131, (S)-benzyl (6-acrylamido-1-(4-(benzylsulfonyl)piperazin-1-yl)-1-oxohexan-2-yl)carbamate] |  |
| 0.0083 | 2430 |  | 0.0115 | 1050 | C=CC(=O)NCCCC[C@H](NC(=O)OCc1ccccc1)C(=O)N1CCN(S(=O)(=O)C2CCCCC2)CC1 [Compound 132, (S)-benzyl (6-acrylamido-1-(4-(cyclohexylsulfonyl)piperazin-1-yl)-1-oxohexan-2-yl)carbamate] |  |
|  |  |  | 0.0237 | 657 | C=CC(=O)NCCCC[C@H](NC(=O)OCc1ccccc1)C(=O)N1CCN(S(=O)(=O)CC)CC1 [Compound 134, (S)-benzyl (6-acrylamido-1-(4-(ethylsulfonyl)piperazin-1-yl)-1-oxohexan-2-yl)carbamate] |  |
| 0.0153 | 2730 |  | 0.00833 | 1310 | C=CC(=O)NCCCC[C@H](NC(=O)OCc1ccccc1)C(=O)N1CCN(S(C)(=O)=O)CC1 [Compound 135, (S)-benzyl(6-acrylamido-1-(4-(methylsulfonyl)piperazin-1-yl)-1-oxohexan-2-yl)carbamate] |  |
|  |  |  | 0.0247 | 613 | C=CC(=O)NCCCC[C@H](NC(=O)OCc1ccccc1)C(=O)N1CCN(S(=O)(=O)c2cccs2)CC1 [Compound 136, (S)-benzyl(6-acrylamido-1-oxo-1-(4-(thiophen-2-ylsulfonyl)piperazin-1-yl)hexan-2-yl)carbamate] |  |
|  |  |  |  |  | C=CC(=O)NCCC[C@H](NC(=O)OCc1ccccc1)C(=O)N1CCN(C(=O)c2ccccc2)CC1 [Compound 149, (S)-benzyl (5-acrylamido-1-(4-benzoylpiperazin-1-yl)-1-oxopentan-2-yl)carbamate] | kinact (TG2 [2]; [3]): 0.0795 s⁻¹; kinact/KI (TG2 [2]; Table 8): 2170 M⁻¹ s⁻¹ |
|  |  | 48 to 49 |  |  | C=CC(=O)NCCCC[C@H](NC(=O)OCc1ccccc1)C(=O)N1CCN(C(=O)Cc2ccccc2)CC1 [Compound 150, (S)-benzyl (6-acrylamido-1-oxo-1-(4-(2-phenylacetyl)piperazin-1-yl)hexan-2-yl)carbamate] | kinact (TG2 [2]; [3]): 0.0377 s⁻¹; kinact/KI (TG2 [2]; Table 8): 1880 M⁻¹ s⁻¹ |
|  |  |  |  |  | C=CC(=O)NCCC[C@H](NC(=O)OCc1ccccc1)C(=O)N1CCN(C(C)=O)CC1 [Compound 151, (S)-benzyl(1-(4-acetylpiperazin-1-yl)-5-acrylamido-1-oxopentan-2-yl)carbamate] | kinact (TG2 [2]; [3]): 0.0343 s⁻¹; overall inhibition efficiency compared to sulfonamide counterpart (TG2 [2]; amide (Table 8) vs sulfonamide (Table 7)): almost three times less; kinact/KI (TG2 [2]; Table 8): 615 M⁻¹ s⁻¹ |
|  |  |  |  |  | C=CC(=O)NCCCC[C@H](NC(=O)OCc1ccccc1)C(=O)N1CCN(C(=O)c2ccccn2)CC1 [Compound 152, (S)-benzyl(6-acrylamido-1-oxo-1-(4-picolinoylpiperazin-1-yl)hexan-2-yl)carbamate] | kinact (TG2 [2]; Table 8): 0.0488 ± 0.00483 s⁻¹; kinact/KI (10^3M^−1 min^−1) (TG2 [2]; Table 8): 91.3 ± 17.9 10^3M^−1 min^−1 |
|  |  |  |  |  | C=CC(=O)NCCCC[C@H](NC(=O)OCc1ccccc1)C(=O)N1CCN(C(=O)c2cccnc2)CC1 [Compound 153, (S)-benzyl (6-acrylamido-1-(4-nicotinoylpiperazin-1-yl)-1-oxohexan-2-yl)carbamate] | kinact (TG2 [2]; [3]): 0.024 s⁻¹; kinact/KI (TG2 [2]; Table 8): 1020 M⁻¹ s⁻¹ |
|  |  |  |  |  | C=CC(=O)NCCCC[C@H](NC(=O)OCc1ccccc1)C(=O)N1CCN(C(=O)c2ccncc2)CC1 [Compound 154, (S)-benzyl-(6-acrylamido-1-(4-isonicotinoylpiperazin-1-yl)-1-oxohexan-2-yl)carbamate] | kinact (TG2 [2]; [3]): 0.0238 s⁻¹; kinact/KI (TG2 [2]; Table 8): 617 M⁻¹ s⁻¹ |
